Laboratory results published in US20140242707A1, “Compositions and Methods for Diagnosing Hypercoagulability and Hypocoagulability” (Philadelphia Health & Education Corporation d/b/a Drexel …, priority 2011, published 2014).

Tested on: Pooled normal plasma
Assay: Thrombelastography of tissue factor-activated pooled normal plasma (Example 1)
Format: biochemical, human
Experimental: Pooled normal plasma (George King Bio-Medical, Overland Park, Kans., USA) anticoagulated with sodium citrate was utilized for experimentation. The lot of plasma used for all experimentation was #1853, with a prothrombin time of 12.3 sec, an activated partial thromboplastin time of 29.3 sec, and a fibrinogen concentration >250 mg/dl. The final volume for all subsequently described plasma sample mixtures was 359.2 μl. Sample composition consisted of 322 μl of plasma; 10 μl of tissue factor reagent (0.1% final concentration in dH2O; Instrumentation Laboratory, Lexington, Mass., USA), 3.6 μl of dH2O or dH2O containing the organic reductant phenylhydroxylamine (PHA, 0-30 mM final concentration, Sigma-Aldrich, Saint Louis, Mo., USA), 3.6 μl of dimethyl sulfoxide (DMSO) or DMSO with CORM-2 (0-400 μM final concentration; Sigma-Aldrich) and 20 μl of 200 mM CaCl2. PHA was chosen as the agent to convert fibrinogen-associated, heme-bound Fe^+2 to an Fe^+3 state (1978, Castro et al., Biochemistry 17:225-231; 1986, Harrison and Jollow, J Pharmacol Exp Ther 238:1045-1054; 1987, Harrison and Jollow, Mol Pharmacol 32:423-431; 1999, Ciccoli et al., Toxicol Lett 110:57-66). Stock solutions of CORM-2 were made just before each experiment. Tissue factor stock solution was kept on ice prior to use and was remade every two hours.
Plasma sample mixtures were placed in a disposable cup in a computer-controlled thrombelastograph hemostasis system (Model 5000, Haemoscope Corp., Niles, Ill., USA), with addition of CaCl2 as the last step to initiate clotting. Data were collected for 15 min at 37° C. Given that final clot strength is the sine quo non of fibrinogen concentration in plasma (2005, Nielsen et al., Acta Anaesthesiol Scand 49:222-231), and that elastic modulus (G, dyne/cm^2) is a measure of strength that can be determined by all commercially available thrombelastographs/thromboelastometers, G values were subsequently recorded for all samples.
Additional elastic modulus-based parameters previously described were determined for some of the experiments (2009, Nielsen et al., Fibrinolysis 20: 377-380; Nielsen et al., in press, Fibrinolysis; 2005, Nielsen et al., Acta Anaesthesiol Scand 49: 222-231; 2009, Nielsen et al., Blood Coagul Fibrinolysis 20: 448-455). The nomenclature used to describe these phenomena is as follows:
Time to maximum rate of thrombus generation (TMRTG): This is the time interval (min) observed prior to maximum speed of clot growth.
Maximum rate of thrombus generation (MRTG): This is the maximum velocity of clot growth observed (dynes/cm^2/sec).
Total Thrombus Generation (TTG): This is the total area under the velocity curve during clot growth (dynes/cm^2), representing the amount of clot strength generated during clot growth.
Thrombelastographic data are presented as mean±SD. Analyses of the effects of PHA before and after CORM-2 addition to plasma were conducted with one way analysis of variance with Holm-Sidak post hoc test (SigmaStat 3.1, Systat Software, Inc., San Jose, Calif., USA). Comparison between plasma exposed to 10 or 30 mM PHA was performed with an unpaired Student's t-test. The plasmatic strength response to increasing concentrations of CORM-2 was analyzed with one way analysis of variance with Holm-Sidakpost hoc test. Graphical representation of the data was generated with commercially available software (Origin 7.5, OriginLab Corp., Northampton, Mass., USA). A P value of <0.05 was considered significant.

SMILES	elastic modulus (G), concentration-response (0-200 μM CORM-2, 5 min, no PHA)	MRTG (100 μM CORM-2) [dynes/cm^2/sec]	TMRTG (100 μM CORM-2) [min]	TTG (100 μM CORM-2) [dynes/cm^2]	elastic modulus (G) (100 μM CORM-2 vs unexposed plasma)	difference in G, 200 μM vs 100 μM CORM-2 (no PHA) [%]	elastic modulus (G) (plasma exposed to 30 mM PHA 2 min, then 100, 200 or 400 μM CORM-2 5 min)	elastic modulus (G) (PHA 10 mM 2 min prior to 100 μM CORM-2)	MRTG (PHA 10 mM alone) [dynes/cm^2/sec]	TMRTG (PHA 10 mM alone) [min]	TTG (PHA 10 mM alone) [dynes/cm^2]	elastic modulus (G) (PHA 10 mM alone)	elastic modulus (G) (PHA 30 mM added 5 min after 100 μM CORM-2)	MRTG (PHA 30 mM alone) [dynes/cm^2/sec]	TMRTG (PHA 30 mM alone) [min]	TTG (PHA 30 mM alone) [dynes/cm^2]	elastic modulus (G) (PHA 30 mM alone)	elastic modulus (G), reduction of CORM-2 mediated increase (PHA 1 or 5 mM 2 min prior to 100 μM CORM-2)	elastic modulus (G) (PHA 10 or 20 mM added 5 min after 100 μM CORM-2)
[C-]#[O+].[C-]#[O+].[C-]#[O+].[C-]#[O+].[C-]#[O+].[C-]#[O+].[Cl][Ru][Cl].[Cl][Ru][Cl] [CORM-2, tricarbonyldichlororuthenium (II) dimer]	sigmoidal increase	12.4 ± 1.4	2.46 ± 0.15	272 ± 21	significantly increased	10.1	no significant increase	–	–	–	–	–	–	–	–	–	–	–	–
ONc1ccccc1 [PHA, phenylhydroxylamine]	–	–	–	–	–	–	–	significantly smaller than plasma not exposed to either compound	3.6 ± 0.9	3.59 ± 0.60	99 ± 11	less than the other three conditions	not different from plasma not exposed to either compound	3.9 ± 0.8	3.91 ± 0.70	106 ± 8	significantly less than the other three conditions	little effect	negligible effects
